From patent US20050220906A1, “Pharmaceutical composition for treating rheumatism and the preparation thereof” (priority 2002, published 2005)

Legend:
IL-1 = IL-1 of abdominal macrophages from dosed mice; type: in vivo, NIH mice; settings: 0.02 g/kg, 10 days
Method: 70 NIH mice, 18-22 g weight, half male and half female, were divided into 7 groups at random. All the groups were drenched with the correspondent medicines (fengshiping and the other medicines). The medicines were drenched once a day for 10 days. 24 hours after the last administration, all the mice were killed and sampled the macrophage and spleen cells from the abdominal carvity. The IL-1 and IL-6 in the samples were measured.
The macrophages in the abdominal carvity were sampled in the asepsis condition. Then the samples were washed by the Hank's liquor for 2 times and nonserum RPMI1640 liquor for 1 time. Then the clear samples were adjusted to the 4×10^6/ml cell suspension with 5% FCS-RPMI liquor. 1 ml of the suspension was added to the test tube and cultured at 37° C. for 1 hour. The unadherent cells were abandoned. Then the cultured liquor was added with 5% FCS-RPMI 1640 and LPS (10 ng/ml) to culture. The cells cultured in 5% CO2 at 37° C. for 72 hours. During the course, the cultured cells were freezed and thawed for several times. The final product was saved at 4° C. The C57 mice were sampled the thymus in the asepsis condition. […]
100 μl supernate separated from the frost thawing liquor and 100 μl cell suspension of thymus were added into the 96-hole flat bottom cell-culture batten. […] The cultured cells were collected with multihead cell-harvesting apparatus and measured the cpm value. […]

NK cell = NK cell activity (Yack-1 target cells); type: in vivo, ICR mice; settings: 0.02 g/kg
Method: The experiment was same to 5.1. 24 hours after the last administration, the spleen cell samples were made into the 2×10^8/ml cell suspension with 5% FCS-RPIM1640. The quantity of CD4, CD8, NK cells and the rate CD4/CD8 were measured on the usural method.
The preparation of the EC cell: The spleen cells were sampled in the asepsis condition. Then the samples were washed by the Hank's liquor for 2 times and nonserum RPMI1640 liquor for 1 time. Then the clear samples were adjusted to the 2×10^8/ml cell suspension with 5% FCS-RPMI liquor. This cell suspension was used as the EC.
The preparation of the TC cell: The Yack-1 cells, which were sensitive to the mouse NK cell and on the logarithmic growth phase, were adjusted to the 4×10^4/ml cell suspension. It was the TC.
Measurement: EC and TC, 100 μl each were added in the 96-hole flat bottom cell culturing batten. Each sample was cultured with 3 copies and set 2 control samples: EC and TC. […] The samples were cultured in 5% CO2 at 37° C. for 24 hours. 6 hours before the end of the culturing, the samples were centrifuged and sucked out 110 μl supernate each hole. And then the holes were added in the MTT 10 μl. After put at 37° C. for 3 hours, the mixed samples were measured the OD value at the wavelength of 570 nm and 630 nm. The OD of each hole=OD570 nm-OD630 nm.

IL-2 = IL-2 level of cultured cells from dosed mice (CTLL cells); type: in vivo, ICR mice; settings: 0.02 g/kg, 10 days
Method: 60 ICR mice, 1822 g, half male and half female, were divided into 6 groups at random. Each group was drenched of the correspondent medicines including the different dosages of Fengshiping and the other medicines. The medicines were administrated once a day for 10 days. 24 hours after the last administration, the mice were sampled the macrophage and spleen cells from the abdominal cavity in the aseptic condition. The samples were washed with Hank's liquor for 2 times and non-serum RPIM 1640 liquor for 1 time. Then the washed samples were diluted to the suspension with the 5% FCS-RPMI 1640 at the concentration of 2×10^8/ml. Then the suspensions were added with 10 ng/ml LPS or the 10 ng/ml ConA and cultured in the 5% CO2 condition for 48 hours at 37° C. Then the cultured suspension were measured the TNF α and IL-2 levels on the usual methods.
The CTLL cells which was on the logarithmic growth phase and whose growth depends on the IL-2, were adjusted to the suspension at the concentration of 1×10^5/ml with the 5% FCS-RPMI 1640. Then the 96 hole cell culturing batten were added with the CTLL cell suspension on the quantity of 100 μl/hole. The supernates were added on the quantity of 100 μl/hole and each sample was added to 3 holes. […] The samples were cultured for 3 hours at 37° C., and then measured the OD at the wavelength 570 nm and 630 nm. […]

DTH caused by DNFB = assay: Delayed hypersensitivity (DTH) caused by DNFB in the mouse ear; type: in vivo, NIH mouse
Method: Each mouse was led to hypersensitivity reaction by using the 1% DNFB acetone solution on the dosage of 0.025 ml at the right place of the abdomen where the pilus had been cut yet. Using the same solution on the same place was to enhance the hypersensitivity reaction on the third day. On the fifth day, all the mice were smeared with the 1% DNFB edible oil solution at the mice's right ears on the dosage of 0.01 ml each. 24 hours later, all the mice were killed. The mouse's 2 ears were weighted by the torsion balance and the difference of the 2 ears was recorded as the DTH degree caused by the DNFB. The experiment was carried out on the different immune and administration processes.
The immune and administration processes is as following: [drawing 1]

[1] = 0.05 g/kg, administration day −2˜0
[2] = 0.05 g/kg, administration day −2˜2
[3] = 0.1 × 3 g/kg, 0, 2, 4 day once a day

O=P1(N(CCCl)CCCl)NCCCO1 (centres unmarked) [cyclophosphane]
IL-1 (IL-1): 44.5 ± 7.7 ng/mL | NK (NK cell): 23.10 ± 3.66 ^ | IL-2 (IL-2): 10.10 ± 3.00 IU/ml | Percent of ear swelling (DTH caused by DNFB; [1]): 37.47 ± 6.71 | Percent of inhibition (DTH caused by DNFB; [1]): 11.7% | Percent of ear swelling (DTH caused by DNFB; [2]): 39.40 ± 10.78 | Percent of inhibition (DTH caused by DNFB; [2]): 8.1% | Percent of ear swelling (DTH caused by DNFB; [3]): 23.00 ± 7.65 | Percent of inhibition (DTH caused by DNFB; [3]): 40.3% | Percent of ear swelling (DTH caused by DNFB; 0.25 g/kg, −3 d): 41.84 ± 7.75 | Percent of inhibition (DTH caused by DNFB; 0.25 g/kg, −3 d): −8.7%
